Values of other authors as cited in patent US12454714B2, “Monbretin A (MbA) synthesis using a heterologous nucleic acid(s) encoding A MbA pathway enzyme” (The University of British Columbia, priority 2018, dated 2025).
Where “and” joins values, the source holds several entries; their conditions need not be identical. Equal entries are not always repeated. Where two headings read alike, the source gives them in different places.

Columns and labels:
[1] = tested on: “Zucker diabetic fatty” rats
gut α-glucosidases = conditions: selectivity versus HPA
[2] = target: T1, human pancreatic α-amylase (HPA) (Homo sapiens, UniProt P04746)
T1 sequence (P04746 16-511): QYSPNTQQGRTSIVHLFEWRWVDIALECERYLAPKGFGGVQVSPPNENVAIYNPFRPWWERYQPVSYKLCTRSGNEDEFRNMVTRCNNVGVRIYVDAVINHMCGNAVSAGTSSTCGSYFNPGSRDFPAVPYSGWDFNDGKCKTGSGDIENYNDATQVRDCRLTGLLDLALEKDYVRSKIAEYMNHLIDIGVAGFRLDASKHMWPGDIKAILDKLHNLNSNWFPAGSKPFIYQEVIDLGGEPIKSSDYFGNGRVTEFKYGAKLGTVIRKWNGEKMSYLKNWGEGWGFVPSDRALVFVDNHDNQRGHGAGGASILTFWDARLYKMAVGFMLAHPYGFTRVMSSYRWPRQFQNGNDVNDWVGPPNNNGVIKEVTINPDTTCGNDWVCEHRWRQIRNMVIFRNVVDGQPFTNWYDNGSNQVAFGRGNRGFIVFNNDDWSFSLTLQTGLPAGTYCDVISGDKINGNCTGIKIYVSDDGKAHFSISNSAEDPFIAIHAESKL

For `CC1OC(OC2COC(Oc3c(O)cc(-c4oc5cc(O)cc(O)c5c(=O)c4OC4OC(C)C(O)C(O)C4OC4OC(COC(=O)C=Cc5ccc(O)c(O)c5)C(O)C(O)C4OC4OC(CO)C(O)C(O)C4O)cc3O)C(O)C2O)C(O)C(O)C1O` [MbA, myricetin 3-O-(glucosyl-6′-O-caffeoyl)-1,2-β-D-glucosyl 1,2-α-L-rhamnoside 4′-O-α-L-rhamnosyl 1,4-β-D-xyloside], which blood-glucose-lowering activity [1] is on record?
The blood-glucose-lowering activity was “effective blood-glucose-lowering”.

What about the “effect on the gut α-glucosidases” value (gut α-glucosidases) of the same compound?
The value was “does not affect”.

And the “HPA inhibition, in words” value [2]?
The value was “potent and selective inhibitors”.

What about the Ki [2] of the same compound?
Its Ki is 8 nM and 8.1 nM.

For `CC1OC(Oc2c(-c3cc(O)c(O)c(O)c3)oc3cc(O)cc(O)c3c2=O)C(OC2OC(COC(=O)C=Cc3ccc(O)c(O)c3)C(O)C(O)C2OC2OC(CO)C(O)C(O)C2O)C(O)C1O` [MbA-XR^2, myricetin 3-O-(glucosyl-6′-O-caffeoyl)-1,2-β-D-glucosyl 1,2-α-L-rhamnoside], which Ki [2] is on record?
The Ki was 42 nM.

With `CC1OC(Oc2c(-c3cc(O)c(O)c(O)c3)oc3cc(O)cc(O)c3c2=O)C(OC2OC(COC(=O)C=Cc3ccc(O)c(O)c3)C(O)C(O)C2O)C(O)C1O` [mini-MbA, myricetin 3-O-(6′-O-caffeoyl)-β-D-glucosyl 1,2-α-L-rhamnoside] as the compound, how does the “HPA inhibition, in words” value [2] read?
Its value is “potent and selective inhibitors”.

What about the Ki [2] of the same compound?
The Ki was 93 nM.

And the Ki ([2]; listed as Mini-MbA)?
The Ki was 90 nM.
